In assay [1] the test system is peptide-pulsed T2. Description: IFN-gamma ELISPOT assay on CTLs induced with peptide (HLA-A*0201). It is filed as cell-based, human. The note with it: CTLs from HLA-A*0201 positive donor, 3 rounds of stimulation, day 21; vs control wells without peptide. An excerpt: Monocyte-derived dendritic cells (DCs) were used as antigen-presenting cells to induce cytotoxic T lymphocyte (CTL) responses against peptides presented on human leukocyte antigen (HLA). DCs were generated in vitro as described elsewhere (Nakahara S et al., Cancer Res 2003 Jul. 15, 63(14): 4112-8). Specifically, peripheral blood mononuclear cells (PBMCs) isolated from a normal volunteer (HLA-A*0201 positive) by Ficoll-Plaque (Pharmacia) solution were separated by adherence to a plastic tissue culture dish (Becton Dickinson) so as to enrich them as the monocyte fraction. The monocyte-enriched population was cultured in the presence of 1,000 U/ml of granulocyte-macrophage colony-stimulating factor (R&D System) and 1,000 U/ml of interleukin (IL)-4 (R&D System) in AIM-V Medium (Invitrogen) containing 2% heat-inactivated autologous serum (AS). After 7 days of culture, the cytokine-induced DCs were pulsed with 20 micro-g/ml of each of the synthesized peptides in the presence of 3 micro-g/ml of beta 2-microglobulin for 3 hrs at 37 degrees C. in AIM-V Medium. The generated cells appeared to express DC-associated molecules, such as CD80, CD83, CD86 and HLA class II, on their cell surfaces (data not shown). These peptide-pulsed DCs were then inactivated by X-irradiated (20 Gy) and mixed at a 1:20 ratio with autologous CD8+ T cells, obtained by positive selection with CD8 positive Isolation Kit (Dynal). These cultures were set up in 48-well plates (Corning); each well contained 1.5×10^4 peptide-pulsed DCs, 3×10^5 CD8+ T cells and 10 ng/ml of IL-7 (R&D System) in 0.5 ml of AIM-V/2% AS medium. Three days later, these cultures were supplemented with IL-2 (CHIRON) to a final concentration of 20 IU/ml. On days 7 and 14, the T cells were further stimulated with the autologous peptide-pulsed DCs. The DCs were prepared each time by the same way described above. CTL was tested against peptide-pulsed T2 cells after the 3rd round of peptide stimulation on day 21 (Tanaka H et al., Br J Cancer 2001 Jan. 5, 84(1): 94-9; Umano Y et al., Br J Cancer 2001 Apr. 20, 84(8): 1052-7; Uchida N et al., Clin Cancer Res 2004 Dec. 15, 10(24): 8577-86; Suda T et al., Cancer Sci 2006 May, 97(5): 411-9; Watanabe T et al., Cancer Sci 2005 August, 96(8): 498-506).
(§1) To examine specific CTL activity, interferon (IFN)-gamma enzyme-linked immunospot (ELISPOT) assay and IFN-gamma enzyme-linked immunosorbent assay (ELISA) were performed. Specifically, peptide-pulsed T2 (1×10^4/well) was prepared as stimulator cells. Cultured cells in 48 wells were used as responder cells. IFN-gamma ELISPOT assay and IFN-gamma ELISA assay were performed under manufacture procedure.

Assay [2] deals with peptide-pulsed T2. Description: IFN-gamma ELISA assay of CTL lines (HLA-A*0201). It counts as cell-based, human. The note with it: target cells pulsed with corresponding peptide vs without peptide pulse. The protocol: CTLs were expanded in culture using the method similar to the one described by Riddell et al. (Walter E A et al., N Engl J Med 1995 Oct. 19, 333(16): 1038-44; Riddell S R et al., Nat Med 1996 February, 2(2): 216-23). A total of 5×10^4 CTLs were suspended in 25 ml of AIM-V/5% AS medium with 2 kinds of human B-lymphoblastoid cell lines, inactivated by Mitomycin C, in the presence of 40 ng/ml of anti-CD3 monoclonal antibody (Pharmingen). One day after initiating the cultures, 120 IU/ml of IL-2 were added to the cultures. The cultures were fed with fresh AIM-V/5% AS medium containing 30 IU/ml of IL-2 on days 5, 8 and 11 (Tanaka H et al., Br J Cancer 2001 Jan. 5, 84(1): 94-9; Umano Y et al., Br J Cancer 2001 Apr. 20, 84(8): 1052-7; Uchida N et al., Clin Cancer Res 2004 Dec. 15, 10(24): 8577-86; Suda T et al., Cancer Sci 2006 May, 97(5): 411-9; Watanabe T et al., Cancer Sci 2005 August, 96(8): 498-506).
as §1
On the technique in general: In an ELISA, binding on a coated surface is turned into a signal by an enzyme label.

The test system of assay [3] is peptide-pulsed T2. Description: IFN-gamma ELISA assay of CTL clones (HLA-A*0201). It counts as cell-based, human. The note with it: clones by limiting dilution; target cells pulsed with peptide. On the procedure:
The dilutions were made to have 0.3, 1, and 3 CTLs/well in 96 round-bottomed micro titer plate (Nalge Nunc International). CTLs were cultured with 1×10^4 cells/well of 2 kinds of human B-lymphoblastoid cell lines, 30 ng/ml of anti-CD3 antibody, and 125 U/ml of IL-2 in a total of 150 micro-l/well of AIM-V Medium containing 5% AS. 50 micro-1/well of IL-2 were added to the medium 10 days later so to reach a final concentration of 125 U/ml IL-2. CTL activity was tested on the 14th day, and CTL clones were expanded using the same method as described above (Uchida N et al., Clin Cancer Res 2004 Dec. 15, 10(24): 8577-86; Suda T et al., Cancer Sci 2006 May, 97(5): 411-9; Watanabe T et al., Cancer Sci 2005 August, 96(8): 498-506).
as §1

Assay [4] has as its system COS7 cells transfected with C6orf167 and HLA-A*0201. Description: Specific CTL activity against target cells exogenously expressing C6orf167 and HLA-A*0201. The conditions noted are these: for Specific CTL activity against control COS7 cells: COS7 transfected with either full length C6orf167 or HLA-A*0201 alone; for Specific CTL activity against COS7 cells expressing both C6orf167 and HLA-A*0201: CTL line (SEQ ID NO: 79) or CTL clone (SEQ ID NO: 114) as effector cells. It counts as cell-based, African green monkey. An excerpt: The cDNA encoding an open reading frame of target genes or HLA-A*0201 was amplified by PCR. The PCR-amplified product was cloned into pCAGGS vector and pIRES vector (Clontech Laboratories, Inc., Cat. No. 631605). The plasmids were transfected into COS7, which is the target genes and HLA-A*0201-null cell line, using lipofectamine 2000 (Invitrogen) according to the manufacturer's recommended procedures. After 2 days from transfection, the transfected cells were harvested with versene (Invitrogen) and used as the target cells (5×10^4 cells/well) for CTL activity assay.
The established CTL lines and clones raised against each peptide were examined for the ability to recognize target cells that endogenously express C6orf167 and HLA-A*0201 molecule. Specific CTL activity against COS7 cells which transfected with both the full length of C6orf167 and HLA-A*0201 gene (a specific model for the target cells that exogenously express C6orf167 and HLA-A*0201 gene) was tested by using the CTL lines and clones raised by corresponding peptide as the effector cells. COS7 cells transfected with either full length of C6orf167 or HLA-A*0201 were prepared as the controls.

Ends that are not written are not given here.

On to TLLCDLISL [SEQ ID NO: 79], for which the “Peptide specific CTL activity: IFN-gamma production by ELISPOT” value with peptide-pulsed T2 [1] is “potent IFN-gamma production”. Besides, in the assay with peptide-pulsed T2 [2], the “IFN-gamma production of CTL lines by ELISA” value is reported as “potent IFN-gamma production”. The “IFN-gamma production of CTL clones by ELISA” value with peptide-pulsed T2 [3] was “Potent IFN-gamma productions”. In addition, in assay [4], the “Specific CTL activity against control COS7 cells” value was “no significant specific CTL activity”; the “Specific CTL activity against COS7 cells expressing both C6orf167 and HLA-A*0201” value is given as “potent CTL activity”.

For the substance “TLLSiYIDGV (TLLSIYIDGV; not fully specified; printed as TLLSiYIDGV) [SEQ ID NO: 114]”, the “Peptide specific CTL activity: IFN-gamma production by ELISPOT” value with peptide-pulsed T2 [1] is reported as “potent IFN-gamma production”. Besides, the “IFN-gamma production of CTL lines by ELISA” value in the assay with peptide-pulsed T2 [2] is recorded as “potent IFN-gamma production”. For the same substance, in the assay on peptide-pulsed T2 [3], the “IFN-gamma production of CTL clones by ELISA” value is “Potent IFN-gamma productions”. Besides, in assay [4], the “Specific CTL activity against control COS7 cells” value is listed as “no significant specific CTL activity”; the “Specific CTL activity against COS7 cells expressing both C6orf167 and HLA-A*0201” value was “potent CTL activity”.

The values are drawn from patent US20120128705A1, “C6ORF167 PEPTIDES AND VACCINES CONTAINING THE SAME” (OncoTherapy Science, Inc., priority 2009, published 2012).
